We go through 25 substances from article doi:10.1101/2022.12.01.518643 (bioRxiv, 2022).

Like-named read-outs stand apart in the source and are kept apart here.

The target in one assay is DRB5*01:01 (DR2a) (Homo sapiens, UniProt P01903+Q30154). In words: Fluorescence polarization competition binding assay, DR2a. Particulars: FP competition; Alexa488 influenza hemagglutinin probe 25 nM; DR2a-CLIP 250 nM; HLA-DM 500 nM; 37 °C, 24 h. Background: Fluorescence polarisation rises when a labelled molecule tumbles more slowly, as on binding a larger partner.
Assay [1] concerns relevant alleles (DP4.1, DR2b, DR2a). In words: Fluorescence polarization competition binding assay, relevant alleles. To be noted: six representative HLA-DR peptides. Set-up: species or system human.
The subject of assay [2] is peptide-expanded T cells from partially HLA-matched donors. The assay can be described thus: IFN-γ ELISpot, single-peptide in vitro expanded T cells with single allele APC. It counts as cell-based, human. Particulars: for minimal activating peptide concentration: dose range 10 – 10^−7 μg/mL; for T cell recognition, IFN-γ ELISpot: expanded T cells from HLA-matched donors.

Assay [3] addresses soluble DP4 (HLA-DPA1*01:03/DPB1*04:01) (human).
The target of assay [4] is soluble recombinant HLA-DR DRB1*15:01 (DR2b) (human). The assay can be described thus: fluorescence polarisation.
Assay [5] deals with soluble recombinant HLA-DR DRB5*01:01 (DR2a) (human). In words: fluorescence polarisation.
For assay [6], the target named is DP4 (HLA-DPA1*01:03/DPB1*04:01), DP4.1 (Homo sapiens, UniProt P04440+P20036). In words: Fluorescence polarization competition binding assay, DP4.1. To be noted: FP competition; Alexa488 oxytocinase probe 25 nM; DP4.1-Clip 250 nM; HLA-DM 500 nM; 37 °C, 24 h.
Assay [7] relates to single-peptide-expanded T cell lines. In words: Intracellular cytokine staining (ICS) of single-peptide-expanded T cell lines. Type of assay: cell-based, human. Particulars: single allele APC, 1 μg/mL.
Assay [8] addresses soluble recombinant HLA-DR DRB1*15:01 (DR2b) (human).
In assay [9] the test system is T cell lines expanded in vitro with OC43 or SARS-CoV-2 peptides. In words: IFN-γ ELISpot cross-reactivity between OC43 peptides and homologs of other coronaviruses. To be noted: Table 1.
The target of the next assay is DRB1*15:01 (DR2b) (Homo sapiens, UniProt P01903+P01911). The assay can be described thus: Fluorescence polarization competition binding assay, DR2b. To be noted: FP competition; Alexa488 MBP probe 25 nM; DR2b-CLIP 500 nM; HLA-DM 500 nM; 37 °C, 24 h.
In assay [10] the target is soluble recombinant HLA-DR DRB5*01:01 (DR2a) (human).

In general, IC50 refers to the concentration needed to halve the response being measured. For the substance “LFYTQVYKNMAVYRS [Peptide P9, OC43 hemagglutinin esterase 128–142, naturally processed peptide eluted from HLA-DR]”, the IC50 on DRB5*01:01 (DR2a) is less than 1000 nM. Also, in assay [1], the “binding to DR2a / DR2b allotypes” value is recorded as “both allotypes”. Further, in assay [2] (donor 40), the “minimal activating peptide concentration” value amounted to 1 µg/mL.
In assay [3], OC43 spike peptide 760–773 (P5) yielded an IC50 of less than 1000 nM.
With “OC43 hemagglutinin esterase peptide 128–142 (P9)”, the IC50 in [4] and in assay [5] was less than 1000 nM throughout.
Take “ITTGYRFTNFEPFT [Peptide P5, OC43 spike 760–773, naturally processed peptide eluted from HLA-DP]”: the IC50 in assay [6] is less than 1000 nM.
On to “NRGRQFYEFYNDVKPP [Peptide P14, OC43 envelope 62–78, naturally processed peptide eluted from HLA-DP]”, for which the “IFN-γ response in ICS” value in assay [7] is “did not produce a response”. The “T cell recognition, IFN-γ ELISpot” value in assay [2] was “not recognized”.
On to OC43 spike peptide 1140–1155 (P6), for which the IC50 in assay [3] was greater than 10000 nM.
In the case of OC43 nucleoprotein peptide 54–68 (P10), the IC50 in assay [8] was less than 1000 nM.
The substance OC43 spike peptide 97–111 (P3) registered an IC50 in assay [3] of less than 10000 nM.
In the case of OC43 spike peptide 271–286 (P13), the IC50 in assay [8] is less than 1000 nM.
For “LSDFINGIFAKVKNTK [Peptide P3, OC43 spike 97–111, naturally processed peptide eluted from HLA-DP]”, the “minimal activating peptide concentration” value in assay [2] (expanded cells from donor 61) is 10^−7 μg/mL.
In the case of “LTALNAYVSQQLSDS [Peptide P11, OC43 spike 1085–1099, naturally processed peptide eluted from HLA-DR]”, the SARS-CoV-2 cross-reactivity entry in assay [9] is reported as “yes”. The “minimal activating peptide concentration” value in [2] (donor 07) is 1 µg/mL.
On to “EGQQIIFYEGVNFTP [Peptide P8, OC43 hemagglutinin esterase 93–107, naturally processed peptide eluted from HLA-DR]”, for which the “IFN-γ response in ICS” value in assay [7] is listed as “did not produce a response”. Moreover, the “T cell recognition, IFN-γ ELISpot” value in assay [2] is recorded as “not recognized”.
With OC43 nucleoprotein peptide 321–336 (P2), in assay [3], the half-inhibitory concentration (IC50) is greater than 10000 nM.
OC43 spike peptide 1085–1099 (P11): the IC50 in [8] is less than 1000 nM.
OC43 spike peptide 1147–1164 (P7) gave an IC50 in [3] of less than 10000 nM.
As for “DFINGIFAKVKNTKVIK [Peptide P12, OC43 spike 98–114, naturally processed peptide eluted from HLA-DR]”, the concentration for half-maximal inhibition (IC50) at DRB5*01:01 (DR2a) is less than 1000 nM; on DRB1*15:01 (DR2b) it was no less than 1000 nM. The “binding to DR2a / DR2b allotypes” value in assay [1] is reported as “bound exclusively to DR2a”.
“GAFFFGSRLELAKVQN [Peptide P2, OC43 nucleoprotein 321–336, naturally processed peptide eluted from HLA-DP]” had an IC50 in assay [6] of no less than 10000 nM. In assay [2] (expanded cells from donor 61), the “minimal activating peptide concentration” value is 10^−6 μg/mL.
As for “SRQYLLAFNQDGIIFN [Peptide P13, OC43 spike 271–286, naturally processed peptide eluted from HLA-DR]”, the “IFN-γ response in ICS” value in assay [7] is recorded as “did not produce a response”. In addition, the “T cell recognition, IFN-γ ELISpot” value in assay [2] was “not recognized”. For the same substance, the IC50 on DRB1*15:01 (DR2b) was less than 1000 nM.
In assay [3], OC43 spike peptide 903–917 (P4) had an IC50 of less than 10000 nM.
As to “OC43 hemagglutinin esterase peptide 93–107 (P8)”, the IC50 in [4] is less than 1000 nM.
With “OC43 envelope protein peptide 62–78 (P14)”, the IC50 in [3] is less than 10000 nM.
Consider OC43 spike peptide 98–114 (P12), for which the IC50 is greater than 1000 nM in assay [8] and less than 1000 nM in assay [10].
In [6], “APYGLYFIHFSYVPTK [Peptide P6, OC43 spike 1140–1155, naturally processed peptide eluted from HLA-DP]” returned an IC50 of no less than 10000 nM.
With “PSGGNVVPYYSWFSG [Peptide P10, OC43 nucleoprotein 54–68, naturally processed peptide eluted from HLA-DR]”, the “minimal activating peptide concentration” value in assay [2] (donors 18, 22, and 40) is reported as 10^−5 μg/mL. Also, in [2] (responding CD4 T cells, discussion), the minimal peptide concentrations result was “about 10 pg/mL”.
In assay [6], “YLAISNELLLTVPTK [Peptide P1, OC43 hemagglutinin esterase 259–273, naturally processed peptide eluted from HLA-DP]” registered an IC50 of less than 1000 nM.
